Assays:
[1] = Monitoring of the blood clearance profile of peptide-dye conjugates; format: in vivo; conditions: rat ear, bolus injection in lateral tail vein, 830 nm after excitation at 780 nm
From the text: A laser of appropriate wavelength for excitation of the dye chromophore was directed into one end of a fiber optic bundle and the other end was positioned a few millimeters from the ear of a rat. A second fiber optic bundle was also positioned near the same ear to detect the emitted fluorescent light and the other end was directed into the optics and electronics for data collection. An interference filter (IF) in the collection optics train was used to select emitted fluorescent light of the appropriate wavelength for the dye chromophore.
After the animals had achieved the desired plane of anesthesia, a 21 gauge butterfly with 12″ tubing was placed in the lateral tail vein of each animal and flushed with heparinized saline. The animals were placed onto a heating pad and kept warm throughout the entire study. The lobe of the left ear was affixed to a glass microscope slide to reduce movement and vibration.
Incident laser light delivered from the fiber optic was centered on the affixed ear. Data acquisition was then initiated, and a background reading of fluorescence was obtained prior to administration of the test agent. […] This procedure was repeated with several dye-peptide conjugates in normal and tumor bearing rats. […] The data were analyzed using a standard sigma plot software program for a one compartment model.

[2] = Imaging of individual organs removed from CA20948 tumor-bearing rat; format: in vivo
Method: Individual organs were removed at about 24 hours post Cytate 1 administration and imaged.

[3] = tested on: Rat pancreatic acinar carcinoma expressing the SST-2 receptor (CA20948); experiment: Non-invasive in vivo fluorescence imaging of rat pancreatic acinar carcinoma (CA20948)
From the text: (§1) A non-invasive in vivo fluorescence imaging apparatus was employed to assess the efficacy of contrast agents developed for tumor detection in animal models. A LaserMax Inc. laser diode of nominal wavelength 780 nm and nominal power of 40 mW was used. The detector was a Princeton Instruments model RTE/CCD-1317-K/2 CCD camera with a Rodenstock 10 mm F2 lens (stock #542.032.002.20) attached. An 830 nm interference […] (CVI Laser Corp., part # F10-830-4-2) was mounted in front of the CCD input lens such that only emitted fluorescent light from the contrast agent was imaged. Typically, an image of the animal was taken pre-injection of contrast agent. This image was subsequently subtracted (pixel by pixel) from the post injection images. However, the background subtraction was […] done once the animal had been removed from the sample area and returned at a later time for images taken several hours post injection.
DSL 6A tumors were induced in male Lewis rats in the left flank area by the introduction of material from a solid (donor) implant and the tumors were palpable in approximately 14 days. The animals were anesthetized with xylazine; ketamine; acepromazine 1.5:1.5:0.5 at 0.8 mL/kg via intramuscular injection. The area of the tumor (left flank) was shaved to expose tumor and surrounding surface area. A 21 gauge butterfly equipped with a stopcock and two syringes containing heparinized saline was placed into the later tail vein of the rat. Patency of the vein was checked prior to administration of the ICG via the butterfly apparatus. Each animal received […] of a 0.42 mg/mL solution of ICG in water.
The imaging apparatus and the procedure used are described in Example 12. Rat pancreatic acinar carcinoma expressing the SST-2 receptor (CA20948) was induced by solid implant technique in the left flank area, and palpable masses were detected nine days post implant. The images obtained at 2 and 30 minutes post injection are shown in FIG. 7E-F. FIGS. 7E-F are images of a rat with an induced pancreatic acinar carcinoma (CA20948) expressing the SST-2 receptor imaged at two minutes (FIG. 7E) and 30 minutes (FIG. 7F) post injection.
The imaging apparatus and the procedure used are described in Example 12 except that each animal received 500 μl of a 1.0 mg/mL solution of Cytate 1 solution of 25% dimethylsulfoxide in water.
Rat pancreatic acinar carcinoma expressing the SST-2 receptor (CA20948) were induced by solid implant technique in the left flank area, and palpable masses were detected 24 days post implant. Images were obtained at various times post injection.
Cytate 1 was evaluated in the CA20948 Lewis rat model. […] At 27 hours post injection, the animal was again imaged (FIG. 9B).

DSL 6A tumors = experiment: Non-invasive in vivo fluorescence imaging of pancreatic ductal adenocarcinoma (DSL 6A); parameters: species or system rat
From the text: as §1
DSL 6A tumors were induced in male Lewis rats in the left flank area by the introduction of material from a solid (donor) implant and the tumors were palpable in approximately 14 days. The animals were anesthetized with xylazine; ketamine; acepromazine 1.5:1.5:0.5 at 0.8 mL/kg via intramuscular injection. The area of the tumor (left flank) was shaved to expose tumor and surrounding surface area. […]

[4] = tested on: Prostatic carcinoma tumor (Dunning R3327-H); experiment: Non-invasive in vivo fluorescence imaging of prostatic carcinoma (R3327-H); parameters: species or system rat
[5] = organ removed about 24 hours post administration
[6] = tissue removed about 24 hours post administration
[7] = CA20948 tumor, 45 minutes post injection

SMILES	fluorescence signal in blood after injection (rise) [1]	fluorescence signal in blood over time (clearance) [1]	uptake in adrenals [2, 5]	uptake in heart [2, 5]	uptake in liver [2, 5]	uptake in pancreas [2, 5]	uptake in spleen [2, 5]	uptake in muscle [2, 6]	uptake in tumor tissue [2, 6]	localization of dye in the tumor ([3]; CA20948 Lewis rat model, 45 minutes post injection)	tumor visualization ([3]; CA20948 Lewis rat model, 27 hours post injection)	time course of uptake into the tumor ([3]; CA20948 tumor, 500 μl of 1.0 mg/mL in 25% dimethylsulfoxide in water)	uptake (dye fluorescence) in tumor at 45 minutes [3, 7]	persistence of dye fluorescence in the tumor ([3]; CA20948 tumor, post-injection)	perfusion of the agent into the tumor (DSL 6A tumors; DSL 6/A (pancreatic) tumor line, CCD camera)	dye intensity in the tumor (DSL 6A tumors; DSL 6A tumor, male Lewis rats, 30 minutes post-ICG injection (vs two minutes), tail vein bolus 0.5 ml aqueous solution)	perfusion of the agent into the tumor ([3]; CA20948 (pancreatic) tumor line, CCD camera)	dye intensity in the tumor ([3]; CA20948 tumor, 30 minutes post-ICG injection (vs two minutes))	perfusion of the agent into the tumor ([4]; Dunning R3327H (prostate) tumor line, CCD camera)	dye intensity in the tumor ([4]; R3327-H tumor, Copenhagen rats, 30 minutes post-ICG injection (vs two minutes))
C[C@@H](O)[C@H](NC(=O)[C@@H]1CSSC[C@H](NC(=O)[C@@H](Cc2ccccc2)NC(=O)CCN2C(=CC=CC=CC=CC3=[N+](CCC(=O)O)c4ccc5ccccc5c4C3(C)C)C(C)(C)c3c2ccc2ccccc32)C(=O)N[C@@H](Cc2ccc(O)cc2)C(=O)N[C@H](Cc2c[nH]c3ccccc23)C(=O)N[C@@H](CCCCN)C(=O)N[C@@H]([C@@H](C)O)C(=O)N1)C(=O)O [Cytate 1, monoOctreotate-Bismethylcarboxymethylindocyanine dye]	rapidly increased to a peak value	decayed as a function of time	high uptake	significantly lower uptake	significantly lower uptake	high uptake	significantly lower uptake	significantly lower uptake	high uptake	localization of this dye was observed in the tumor	easily observed	seen at two minutes but was not maximal until about five minutes	still quite intense	remained intense in the tumor for several hours	–	–	–	–	–	–
C[C@@H](O)[C@H](NC(=O)[C@@H]1CSSC[C@H](NC(=O)[C@@H](Cc2ccccc2)NC(=O)CCN2C(=CC=CC=CC=CC3=[N+](CCC(=O)N[C@H](Cc4ccccc4)C(=O)N[C@H]4CSSC[C@@H](C(=O)N[C@H](C(=O)O)[C@@H](C)O)NC(=O)[C@H]([C@@H](C)O)NC(=O)[C@H](CCCCN)NC(=O)[C@@H](Cc5c[nH]c6ccccc56)NC(=O)[C@H](Cc5ccc(O)cc5)NC4=O)c4ccc5ccccc5c4C3(C)C)C(C)(C)c3c2ccc2ccccc32)C(=O)N[C@@H](Cc2ccc(O)cc2)C(=O)N[C@H](Cc2c[nH]c3ccccc23)C(=O)N[C@@H](CCCCN)C(=O)N[C@@H]([C@@H](C)O)C(=O)N1)C(=O)O [Cytate 2, bisOctreotate-Bismethylcarboxymethylindocyanine dye]	rapidly increased to a peak value	decayed as a function of time	–	–	–	–	–	–	–	–	–	–	–	–	–	–	–	–	–	–
CC1(C)C(/C=C/C=C/C=C/C=C2\N(CCCCS(=O)(=O)O)c3ccc4ccccc4c3C2(C)C)=[N+](CCCCS(=O)(=O)[O-])c2ccc3ccccc3c21 [ICG, indocyanine green]	–	–	–	–	–	–	–	–	–	–	–	–	mostly cleared	–	slow perfusion of the agent over time into the tumor	considerably diminished	only a slight but transient perfusion that was absent after only 30 minutes post injection	considerably diminished and almost absent	slow perfusion of the agent over time into the tumor	considerably diminished

Source: patent US7767194B2, “Optical diagnostic and therapeutic agents and compositions” (Mallinckrodt Inc., priority 2000, dated 2010)
